Reference: patent US20040204390A1, “Pharmaceutical combination comprising an anti-androgen and an oestrogen receptor beta agonist” (priority 2001, published 2004)
pKd: −log10 of the molar value.

What was measured:
estrogen receptor = assay: Scatchard analysis of ligand binding affinity on receptor-programmed reticulocyte lysate; details: Scatchard analysis at receptor dilutions giving signal:noise ~10
Procedure: The volume of receptor-programmed reticulocyte lysate to be added to the binding assay can be determined independently from two measurements made on each batch of receptor prepared. First, Kis are determined for standard compounds using a series of dilutions of the receptor preparation. Scatchard analysis of ligand binding affinity is performed at the receptor dilutions that produced reported Kis for these compounds and an acceptable signal:noise ratio (˜10).

[1] = humans, single agent therapy, circulating in the blood; Blackledge et al, Urology 1996; cited from earlier work

Compound | pKd (estrogen receptor) | basal level of total testosterone [1]
CC12CCC3c4ccc(O)cc4CCC3C1CC([125I])C2O (stereo not drawn) [[^125I]-estradiol, [^125I]-16α-iodo-3,17β-estradiol] | 9.00 to 10.00 | 
CC(O)(CS(=O)(=O)c1ccc(F)cc1)C(=O)Nc1ccc(C#N)c(C(F)(F)F)c1 (stereo not drawn) [bicalutamide, 4′-cyano-α′,α′,α′-trifluoro-3-(4-fluorophenylsulphonyl)-2-hydroxy-2-methylpropiono-m-toluidide] |  | approximate doubling
